In patent US8445636B2, “Antimicrobial and anticancer lipopeptides” (Yeda Research & Development Co. Ltd., priority 2003, dated 2013):
Values after ≈ are worked out from the molar mass of the structure shown. Positions of bridges follow the written chain, without caps; N, C: chain ends. Non-standard residues stand in square brackets, D forms with d. Residues, ends and D or L forms follow the SMILES beside them. *: point of attachment. Palmitoyl = CCCCCCCCCCCCCCCC(=O)*; Myristoyl = CCCCCCCCCCCCCC(=O)*

How the values were obtained:
in vitro [1] = type: in vitro ADME, bovine; conditions: isolated enzyme trypsin, pH 7.3
Procedure: (§1) Equal amounts of the lipopeptides were dissolved in PBS (35 mM phosphate buffer/0.15 M NaCl, pH 7.3) to yield a final concentration of 140 μM to which 25 μM of either pepsin (from porcine stomach mucosa, Sigma), trypsin (from bovine pancreas, Sigma), or elastase (from human leukocytes, Sigma) were added. The samples were incubated under agitation for 30 min at 37° C. After addition of the appropriate protease inhibitor to stop the reaction, aliquots of the proteolytic digest were injected to C18 HPLC column and the amounts of the intact lipopeptide were evaluated using their absorbance at 215 nm.

in vitro [2] = type: in vitro ADME, porcine; conditions: pig, isolated enzyme pepsin, pH 7.3
Procedure: as §1

[3] = Resistance to proteolytic digestion, intact lipopeptide by HPLC; type: in vitro ADME; conditions: human, elastase from human leukocytes; 140 μM lipopeptide, 25 μM protease, 30 min at 37° C., PBS pH 7.3
Procedure: as §1

[4] = tested on: Acinetobacter baumannii ATCC 19606; type: cell-based; conditions: ATCC 19606, pH 7.4
How it was run: (§2)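 Lipopeptides were serially diluted 2-fold in water and combined with an equal volume of bacterial suspension (1×10^6 CFU/ml) in LB medium, normally at pH 7.4. Plates were incubated 18-20 h at 37° C, absorbance at 600 nm was measured, and the MIC was taken as the concentration fully inhibiting growth.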

[5] = tested on: Enterobacter cloacae ATCC 49141; type: cell-based; conditions: ATCC 49141, pH 7.4
How it was run: as §2

[6] = tested on: Enterococcus faecalis ATCC 29212; type: cell-based; conditions: ATCC 29212, pH 7.4
How it was run: as §2

[7] = tested on: Escherichia coli ATCC 25922; type: cell-based; conditions: ATCC 25922, pH 7.4
How it was run: as §2

[8] = tested on: Pseudomonas aeruginosa ATCC 27853; type: cell-based; conditions: ATCC 27853, pH 7.4
How it was run: as §2

[9] = tested on: Staphylococcus aureus ATCC 6538P; type: cell-based; conditions: ATCC 6538, pH 7.4
How it was run: as §2

[10] = tested on: methicilin-resistant Staphylococcus aureus (MRSA) ATCC 700698; type: cell-based; conditions: ATCC 700698, pH 7.4
How it was run: as §2

[11] = tested on: vancomycin-resistant Enterococcus faecium (VRE) ATCC 700221; type: cell-based; conditions: for Minimal Inhibitory Concentration, E. faecium (VRE): ATCC 700221, pH 7.4
How it was run: as §2

[12] = tested on: Candida albicans ATCC 10231; experiment: microbe, parasite or virus in culture; type: cell-based; conditions: ATCC 10231, pH 7.4; for MIC: read-out: Minimal Inhibitory Concentration, Candida Albicans (ATCC 10231)
How it was run: (§3)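 MIC = lowest concentration giving 100% growth inhibition by A620 after 24-48 h at 35 °C with agitation. Inoculum: 1×10^4 CFU/ml (pre-mix) in RPMI 1640/0.165 M MOPS; pH 7.4 by default, 5.5 where noted. Peptide as twofold dilution series in water.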

[13] = tested on: Cryptococcus neoformans ATCC 66031; experiment: microbe, parasite or virus in culture; type: cell-based; conditions: ATCC 66031, pH 7.4
How it was run: as §3

[14] = tested on: Aspergillus fumigatus ATCC 26430; experiment: microbe, parasite or virus in culture; type: cell-based; conditions: ATCC 26430, pH 7.4
B. subtilis ATCC 6051 = type: cell-based; conditions: ATCC 6051, pH 7.4
[15] = tested on: Cryptococcus neoformans ATCC MYA-422; experiment: microbe, parasite or virus in culture; type: cell-based; conditions: ATCC MYA-422, pH 7.4
[16] = tested on: Aspergillus flavus ATCC 9643; type: cell-based; conditions: ATCC 9643, pH 7.4
[17] = tested on: Aspergillus niger ATCC 9642; type: cell-based; conditions: ATCC 9642, pH 7.4
Procedure: The antifungal activity of the lipopeptides was examined in sterile 96-well plates (Nunc F96 microtiter plates) in a final volume of 200 μL as follows: 100 µl of a suspension containing fungi at a concentration of 1×10^4 Colony-Forming Units (CFU)/ml in culture medium (RPMI 1640, 0.165 M MOPS with L-glutamine, without NaHCO3) at pH 7.4 or pH 5.5 (adjustment of the pH was done by diluted solutions of HCl and NaOH) were added to 100 μl of water containing the peptide in serial 2-fold dilutions in water. The fungi were incubated in the presence of the lipopeptides for 24-48 h at 35° C. in a Binder KB115 incubator under agitation. Growth inhibition was determined by measuring the absorbance at 620 nm with a Microplate autoreader E1309 (Bio-Tek Instruments). Antifungal activity is expressed as the minimal inhibitory concentration (MIC), the concentration at which 100% inhibition of fungi growth was observed after the incubation time mentioned above. The fungi used were: Aspergillus niger ATCC 9642, Candida albicans ATCC 10231 and Cryptococcus neoformans ATCC 66031. If not indicated otherwise, the fungi growth was detected at pH 7.4.

[18] = tested on: Prostate cancer cell line 22RV1; experiment: Cytotoxicity, XTT viability; type: cell-based, human; conditions: 24 h incubation, read-out: LC50, Prostate cancer 22RV1
Procedure: (§4) Prostate cancer cell lines (CL1 and 22RV1; ATCC, USA) were grown in RPMI-1640 supplemented with 10% FCS (Biological Industries, Beit Haemek, Israel). N1H-3T3 mouse fibroblast cell line (ATCC, USA) was grown in DMEM supplemented with 10% bovine serum. To test cytotoxicity against the cancer cells, aliquots of medium containing 1×10^4 cells were distributed into a 96-well plate (Falcon). After one day, the media were replaced with 90 μl of fresh media and 10 μl of a solution containing different concentrations of the peptides. The plate was then incubated for 24 h before adding to each well 50 μl of XTT reaction solution (Biological Industries, Beit Haemek, Israel); viability was determined as previously described (Papo et al., (2003) J. Biol. Chem. 278:21018-23). The LC50 (concentration at which 50% of the cells die) for each peptide was obtained from the dose-dependent cell viability curves.

[19] = tested on: Prostate cancer cell line CL1; experiment: Cytotoxicity, XTT viability; type: cell-based, human; conditions: 24 h incubation, read-out: LC50, Prostate cancer CL1
Procedure: as §4

[20] = Cytotoxicity, XTT viability, non-cancer cells; type: cell-based; conditions: mouse, non-cancer cell line, 24 h incubation, read-out: LC50, 3T3
Procedure: as §4

E. coli D21 = type: cell-based; conditions: D21, pH 7.4
M. laleus = type: cell-based; conditions: Table 3, short lipopeptides; pH 7.4
How it was run: as §2

Row | SMILES | metabolised at 0.5 h, 140 μM (in vitro [1]) [%] | metabolised at 0.5 h, 140 μM (in vitro [2]) [%] | metabolised at 0.5 h, 140 μM [3] [%] | Minimal Inhibitory Concentration, A. Baumaannii [4] [µM] | Minimal Inhibitory Concentration, E. cloacae [5] [µM] | Minimal Inhibitory Concentration, E. faecalis [6] [µM] | Minimal Inhibitory Concentration, E. coli [7] [µM] | Minimal Inhibitory Concentration, P. Aeruginosa [8] [µM] | Minimal Inhibitory Concentration, S. aureus [9] [µM] | Minimal Inhibitory Concentration, S. aureus (MRSA) [10] [µM] | Minimal Inhibitory Concentration, E. faecium (VRE) [11] [µM] | Minimal Inhibitory Concentration, C. albicans ATCC 10231 [12] [µM] | Minimal Inhibitory Concentration, C. neoformans ATCC 66031 [13] [µM] | Minimal Inhibitory Concentration, A. fumigatus ATCC 26430 [14] [µM] | Minimal Inhibitory Concentration, A. baumannii ATCC 19606 [4] [µM] | Minimal Inhibitory Concentration, P. aeruginosa ATCC 27853 [8] [µM] | Minimal Inhibitory Concentration, S. aureus ATCC 6538P [9] [µM] | MIC [12] [µM] | also measured
1 | CCCCCCCCCCCCCC(=O)N[C@H]1CSSC[C@@H](C(N)=O)NC(=O)[C@@H](CCCCN)NC(=O)CNC(=O)CNC(=O)[C@@H](CCCCN)NC(=O)CNC(=O)CNC(=O)CNC(=O)[C@@H](CCCCN)NC(=O)CNC(=O)CNC(=O)CNC(=O)[C@@H](CCCCN)NC1=O [lipopeptide 16] (Myristoyl-C[dK]GGG[dK]GGG[dK]GG[dK]C-NH2; disulfide 1-14) | 0 | 0 | 0 |  |  |  |  |  |  |  |  |  |  |  |  |  |  |  | 
2 | CCCCCCCCCCCCCC(=O)N[C@@H](CCCCN)C(=O)NCC(=O)NCC(=O)NCC(=O)N[C@@H](CCCCN)C(=O)NCC(=O)NCC(=O)NCC(=O)N[C@@H](CCCCN)C(=O)NCC(=O)NCC(=O)N[C@@H](CCCCN)C(N)=O [lipopeptide 3, (CH3—(CH2)12—CO—)-Lys-Gly-Gly-Gly-Lys-Gly-Gly-Gly-Lys-Gly-Gly-Lys-NH2] (Myristoyl-KGGGKGGGKGGK-NH2) |  |  |  | 12.5 | 6.25 | 6.25 | 6.25 | 6.25 | 6.25 | 6.25 | 12.5 | 3.125 | 3.125 | 6.25 |  |  |  |  | 
3 | CCCCCCCCCCCCCCCC(=O)N[C@H](CCCCN)C(=O)NCC(=O)NCC(=O)NCC(=O)N[C@H](CCCCN)C(=O)NCC(=O)NCC(=O)NCC(=O)N[C@H](CCCCN)C(=O)NCC(=O)NCC(=O)N[C@H](CCCCN)C(N)=O [lipopeptide 2, (CH3—(CH2)14—CO—)-D-Lys-Gly-Gly-Gly-D-Lys-Gly-Gly-Gly-D-Lys-Gly-Gly-D-Lys-NH2] (Palmitoyl-[dK]GGG[dK]GGG[dK]GG[dK]-NH2) |  |  |  | 25 | 25 | 12.5 | 25 | 6.25 | 12.5 | 12.5 | 3.125 | 3.125 | 6.25 | 12.5 | 25 | 6.25 | 12.5 | 3.125 (≈ 3.83 µg/mL) | Minimal Inhibitory Concentration, E. coli (ATCC 25922) [7]: 25 µM; activity against VRE ([11]; in words, summary of Table 4): highly active; Minimal Inhibitory Concentration, B. subtilis (ATCC 6051) (B. subtilis ATCC 6051): 3.125 µM; Minimal Inhibitory Concentration, Cryptococcus neoformans (ATCC MYA-422) [15]: 6.25 µM; Minimal Inhibitory Concentration, Aspergillus fumigatus (ATCC 26430) [14]: 12.5 µM; Minimal Inhibitory Concentration, Aspergillus flavus (ATCC 9643) [16]: 100 µM; Minimal Inhibitory Concentration, Aspergillus niger (ATCC 9642) [17]: 6.25 µM
4 | CC(C)C[C@@H](N)C(=O)N[C@@H](CCCNC(=N)N)C(=O)N[C@@H](CCCNC(=N)N)C(=O)N[C@H](CC(C)C)C(=O)N[C@H](CC(C)C)C(=O)N[C@@H](CCCNC(=N)N)C(=O)N[C@@H](CCCNC(=N)N)C(=O)N[C@H](CC(C)C)C(=O)N[C@H](CC(C)C)C(=O)N[C@@H](CCCNC(=N)N)C(=O)N[C@@H](CCCNC(=N)N)C(=O)N[C@H](CC(C)C)C(N)=O [DL6R6, LRRLLRRLLRRL, reference compound] (H-[dL]RR[dL][dL]RR[dL][dL]RR[dL]-NH2; N-terminus assumed) |  |  |  |  |  |  |  |  |  |  |  |  |  |  |  |  |  |  | CC50 [18]: 50 µM; CC50 [19]: > 100 µM; CC50 at 24 h [20]: > 100 µM
5 | CCCCCCCCCCCCCCCC(=O)N[C@@H](CCCCN)C(=O)N[C@H](CCCCN)C(N)=O [PA-KK, Palmitoyl-Lys-D-Lys-NH2] |  |  |  |  |  |  |  |  |  |  |  |  |  |  | 100 | 100 | 6.25 | 12.5 (≈ 6.4 µg/mL) | Minimal Inhibitory Concentration, E. coli-D21 (E. coli D21): 6.25 µM; Minimal Inhibitory Concentration, M. laleus (M. laleus): 3.12 µM; MIC ([15]; read-out: Minimal Inhibitory Concentration, Cyrptococcus neoformans (ATCC MYA-422)): 2.5 µM (≈ 1.28 µg/mL); MIC ([14]; read-out: Minimal Inhibitory Concentration, Aspergillus Fomigatus (ATCC 26430)): 6.25 µM (≈ 3.2 µg/mL)
6 | CCCCCCCCCCCCCC(=O)N[C@H]1CSSC[C@@H](C(N)=O)NC(=O)[C@H](CCCCN)NC(=O)CNC(=O)CNC(=O)[C@H](CCCCN)NC(=O)CNC(=O)CNC(=O)CNC(=O)[C@H](CCCCN)NC(=O)CNC(=O)CNC(=O)CNC(=O)[C@H](CCCCN)NC1=O [lipopeptide 19] (Myristoyl-CKGGGKGGGKGGKC-NH2; disulfide 1-14) | 100 | 100 | 100 |  |  |  |  |  |  |  |  |  |  |  |  |  |  |  | 
